The assay deals with Protein Kinase C beta 2 (PKCβII) (Homo sapiens (Human), UniProt P05771). Nature of the assay: PKCβII coupled PK/LDH spectrophotometric kinase assay. The assay is classed as biochemical. The settings on record: apparent Ki, ATP-competitive model (Morrison equation); 0.1 mM ATP, 30° C.; read-out: PKCb Ki. As to the method: This transfer is coupled to the oxidation of β-NADH through the activities of Pyruvate Kinase (PK) and Lactate Dehydrogenase (LDH). β-NADH conversion to NAD+ is monitored by the decrease in absorbance at 340 nm (e=6.22 cm^−1 mM^−1) using a Molecular Devices SPECTRA max PLUS spectrophotometer.
Sequence of Protein Kinase C beta 2 (PKCβII) (P05771 other isoform, or with tags, fused parts or gaps): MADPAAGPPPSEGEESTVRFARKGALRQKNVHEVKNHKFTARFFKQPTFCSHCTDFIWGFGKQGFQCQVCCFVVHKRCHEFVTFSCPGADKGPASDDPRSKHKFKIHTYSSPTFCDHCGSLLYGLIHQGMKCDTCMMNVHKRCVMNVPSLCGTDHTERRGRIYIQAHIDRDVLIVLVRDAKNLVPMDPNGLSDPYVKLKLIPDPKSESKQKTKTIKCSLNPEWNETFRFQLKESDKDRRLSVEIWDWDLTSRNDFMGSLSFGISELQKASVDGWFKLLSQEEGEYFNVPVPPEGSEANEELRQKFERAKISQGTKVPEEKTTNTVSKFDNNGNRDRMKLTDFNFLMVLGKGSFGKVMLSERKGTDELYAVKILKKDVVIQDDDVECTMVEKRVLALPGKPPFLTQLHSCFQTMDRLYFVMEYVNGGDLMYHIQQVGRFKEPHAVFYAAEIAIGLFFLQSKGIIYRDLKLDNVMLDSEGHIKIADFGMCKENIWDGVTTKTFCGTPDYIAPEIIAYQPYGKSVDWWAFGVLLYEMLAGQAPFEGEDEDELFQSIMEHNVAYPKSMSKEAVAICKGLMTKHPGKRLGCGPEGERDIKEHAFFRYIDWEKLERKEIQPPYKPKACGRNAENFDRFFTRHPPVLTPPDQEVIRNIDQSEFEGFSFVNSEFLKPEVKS
A typical assay was carried out on a 96-well, clear microtiter plate in a Molecular Devices spectrophotometer for 20 minutes at 30° C. in 0.1 mL of assay buffer containing 50 mM HEPES, pH 7.4, 5 nM PKC, 23 units of pyruvate kinase, 33 units of lactate dehydrogenase, 0.15 mM peptide, 0.1 mM ATP, 1 mM DTT, 4 mM PEP, 8 mM MgCl2, 0.3 mM NADH, 60 mM CaCl2, 10 mg/mL PS, 50 ng/mL PMA, 7.5% DMSO and from about 10,000 nM to 0.169 nM compound inhibitor. Stock solutions of 3-sn-phosphatidyl-L-serine (PS) and phorbol-12-myristate-13-acetate (PMA) were sonicated for 30 seconds just prior to addition to assay buffer and assays were initiated by the addition of 100 μM ATP.
Enzyme turnover values (kcat) were calculated according to […], where [E] is the total enzyme concentration. Enzyme inhibition constants (apparent K values) were determined by fitting initial velocities at variable inhibitor concentrations to a model for ATP competitive inhibition based on the Morrison equation). Morrison, J. F., Biochim. Biophys Acta 185: 269-286 (1969).

These results are taken from US8999981B2, “3-amido-pyrrolo[3,4-C]pyrazole-5(1H, 4H,6H) carbaldehyde derivatives” (Pfizer Inc., priority 2007, dated 2015).

With `Cc1nc(C(=O)Nc2n[nH]c3c2CN(C(=O)N2C[C@@H]4CCCN4C[C@@H]2C)C3(C)C)cs1` [Example E9], the Ki was 31.3 nM. Then `Cc1ncoc1C(=O)Nc1n[nH]c2c1CN(C(=O)N1C[C@@H](C)N(C)C[C@@H]1C)C2(C)C` [Example C5], with 46.5 nM; and `C=CCN1C[C@H](C)N(C(=O)N2Cc3c(NC(=O)c4ccccn4)n[nH]c3C2(C)C)C[C@H]1C` [Example A89], with 15.7 nM; and `CC1(C)c2[nH]nc(NC(=O)c3ccccn3)c2CN1C(=O)N1C[C@@H]2CCCN2C[C@@H]1CC1CCCCC1` [Example A56], with 18.1 nM. As for `C[C@H]1CN2CCC[C@H]2CN1C(=O)N1Cc2c(NC(=O)c3cccc(C#N)c3)n[nH]c2C1(C)C` [Example A60], the Ki turned out to be 17.1 nM. `C[C@@H]1CN(C(=O)N2Cc3c(NC(=O)c4ccccn4)n[nH]c3C23CC3)[C@@H](C)CN1CC1CCOCC1` [Example A152]: the Ki is 76.2 nM. As for `Cc1cc(C(=O)Nc2n[nH]c3c2CN(C(=O)N2C[C@@H]4CCCN4C[C@@H]2C)C3(C)C)nc(Cl)n1` [Example A58], the Ki turned out to be 35.3 nM. Then `C[C@@H]1CN(C(=O)N2Cc3c(NC(=O)c4ccc(C#N)cn4)n[nH]c3C2(C)C)[C@@H](C)CN1C` [Example G2], with 28.7 nM; and `COCCCN1C[C@H](C)N(C(=O)N2Cc3c(NC(=O)c4cc(C)nc(C)n4)n[nH]c3C2(C)C)C[C@H]1C` [Example F2], with 78.4 nM; and `CCc1ccnc(C(=O)Nc2n[nH]c3c2CN(C(=O)N2C[C@@H]4CCCN4C[C@@H]2C)C3(C)C)c1` [Example A53], with 66.3 nM. With `C[C@H]1CN2CCC[C@H]2CN1C(=O)N1Cc2c(NC(=O)c3ccc(C#N)cc3F)n[nH]c2C1(C)C` [Example A66], the Ki came out at 122 nM. Then `C[C@@H]1CN(C(=O)N2Cc3c(NC(=O)c4ccc(C(F)(F)F)cn4)n[nH]c3C2(C)C)[C@@H](C)CN1CC1CCOCC1` [Example F60], with 4.17 nM.

Take `CCc1nc(C)c(C(=O)Nc2n[nH]c3c2CN(C(=O)N2C[C@@H](C)N(C)C[C@@H]2C)C3(C)C)o1` [Example C6]: the Ki is 25.7 nM. Then `Cc1nc(C)c(C(=O)Nc2n[nH]c3c2CN(C(=O)N2C[C@@H](C)N(CC4CCOCC4)C[C@@H]2C)C3(C)C)o1` [Example F20], with 19.7 nM; and `C[C@H]1CN2CCC[C@@H]2CN1C(=O)N1Cc2c(NC(=O)c3ccccn3)n[nH]c2C1(C)C` [Example A77], with 77.8 nM; and `CC1(C)CN2CCC[C@H]2CN1C(=O)N1Cc2c(NC(=O)c3cccc(Cl)c3)n[nH]c2C1(C)C` [Example A57], with 87.4 nM. Then `C[C@H]1CN2CCC[C@H]2CN1C(=O)N1Cc2c(NC(=O)c3cccc(Cl)c3)n[nH]c2C1(C)C` [Example A31], with 21.3 nM; and `CC1(C)c2[nH]nc(NC(=O)c3cccc(F)c3F)c2CN1C(=O)N1C[C@@H]2CCCN2C[C@@H]1Cc1ccccc1` [Example A20], with 50.8 nM.

Turning to `C[C@H]1CN2CCC[C@H]2CN1C(=O)N1Cc2c(NC(=O)c3ccccc3)n[nH]c2C1(C)C` [Example A27], the Ki came out at 35.1 nM. Then `C[C@@H]1CN(C(=O)N2Cc3c(NC(=O)c4ccccn4)n[nH]c3C2(C)C)[C@@H](C)CN1C1CCOCC1` [Example A146], with 1.7 nM; and `CCN1C[C@H](C)N(C(=O)N2Cc3c(NC(=O)c4ccc(F)cn4)n[nH]c3C2(C)C)C[C@@H]1C` [Example A126], with 22.2 nM; and `C[C@H]1CN2CCC[C@@]2(C)CN1C(=O)N1Cc2c(NC(=O)c3ccc(F)cn3)n[nH]c2C1(C)C` [Example A138], with 29.3 nM. On to `C[C@H]1CN2C[C@@H](F)C[C@H]2CN1C(=O)N1Cc2c(NC(=O)c3ccccn3)n[nH]c2C1(C)C` [Example A105], for which the Ki turned out to be 109 nM. As to `C[C@@H]1CN(C(=O)N2Cc3c(NC(=O)c4ccc(C#N)cn4)n[nH]c3C2(C)C)[C@@H](C)CN1CC1CCOCC1` [Example G3], the Ki is less than 10 nM.

On to `COCCN1C[C@H](C)N(C(=O)N2Cc3c(NC(=O)c4ccccn4)n[nH]c3C2(C)C)C[C@H]1C` [Example A93], for which the Ki amounted to 63.6 nM. For `CC1(C)c2[nH]nc(NC(=O)c3ccccc3)c2CN1C(=O)N1CCN2CCCC2C1` (centres unmarked) [Example A16], the Ki is 113 nM.

As to `CC[C@H]1CN2CCC[C@H]2CN1C(=O)N1Cc2c(NC(=O)c3ccc(F)cc3)n[nH]c2C1(C)C` [Example A73], the Ki was 115 nM. In the case of `C[C@@H]1CN(C(=O)N2Cc3c(NC(=O)c4ccc(F)cn4)n[nH]c3C2(C)C)[C@@H](C)CN1C1CCOCC1` [Example A149], the Ki was less than 10 nM. Consider `CC1(C)c2[nH]nc(NC(=O)c3cccc(Cl)n3)c2CN1C(=O)N1CCN2CCCC2C1` (centres unmarked) [Example A24], for which the Ki was 42.9 nM. As for `C[C@H]1CN2CCC[C@H]2CN1C(=O)N1Cc2c(NC(=O)c3nc4ccccc4s3)n[nH]c2C1(C)C` [Example A54], the figure is 49.9 nM; as for `CN1CCN(C(=O)N2Cc3c(NC(=O)c4cccc(Oc5ccccc5)c4)n[nH]c3C2(C)C)C(c2ccccc2)C1` (centres unmarked) [Example A9], 159 nM.

In the case of `C[C@@H]1CN(C(=O)N2Cc3c(NC(=O)c4ccccn4)n[nH]c3C2(C)C)[C@@H](C)CN1CCCCC#N` [Example A144], the Ki came out at 38.3 nM. Consider `CC[C@H]1CN2CCC[C@H]2CN1C(=O)N1Cc2c(NC(=O)c3ccccn3)n[nH]c2C1(C)C` [Example A70], for which the Ki was 46.2 nM. Then `C[C@@H]1CN(C(=O)N2Cc3c(NC(=O)c4ccccn4)n[nH]c3C2(C)C)[C@@H](C)CN1CC1CCOC1` (some centres unmarked) [Example A147], with less than 10 nM; and `C[C@@H]1CN(C(=O)N2Cc3c(NC(=O)c4cc(C5CC5)on4)n[nH]c3C2(C)C)[C@@H](C)CN1CC1CCOCC1` [Example F11], with 29.8 nM; and `C[C@@H]1CN(C(=O)N2Cc3c(NC(=O)c4ccccn4)n[nH]c3C2(C)C)[C@@H](C)CN1CC1(C)COC1` [Example A153], with 37 nM.

Turning to `CCCc1cc(C(=O)Nc2n[nH]c3c2CN(C(=O)N2C[C@@H](C)N(CC4CCOCC4)C[C@@H]2C)C3(C)C)no1` [Example F24], the Ki worked out at 59.4 nM. As to `CC[C@H]1CN2CCC[C@H]2CN1C(=O)N1Cc2c(NC(=O)c3ccccc3)n[nH]c2C1(C)C` [Example A69], the Ki turned out to be 67.8 nM. For `CCc1ccc(C(=O)Nc2n[nH]c3c2CN(C(=O)N2C[C@@H]4CCCN4C[C@@H]2C)C3(C)C)cc1` [Example A61], the Ki worked out at 23.8 nM. Then `CCn1nc(C)cc1C(=O)Nc1n[nH]c2c1CN(C(=O)N1C[C@@H](C)N(CC3CCOCC3)C[C@@H]1C)C2(C)C` [Example F14], with 20 nM; and `C[C@H]1CN2CCC[C@H]2CN1C(=O)N1Cc2c(NC(=O)c3cc(Cl)ccc3F)n[nH]c2C1(C)C` [Example A33], with 82.7 nM. As for `CCc1cc(C(=O)Nc2n[nH]c3c2CN(C(=O)N2C[C@@H]4CCCN4C[C@@H]2C)C3(C)C)no1` [Example E1], the figure is 61.6 nM. As for `Cc1ccc(C(=O)Nc2n[nH]c3c2CN(C(=O)N2C[C@@H](C)N(C4CCOCC4)C[C@@H]2C)C3(C)C)nc1` [Example F54], the Ki was 12.2 nM.

Take `Cc1cc(C(=O)Nc2n[nH]c3c2CN(C(=O)N2C[C@@H]4CCCN4C[C@@H]2C)C3(C)C)ccc1F` [Example A62]: the Ki amounted to 50.8 nM. For the molecule `CCc1nc(C)c(C(=O)Nc2n[nH]c3c2CN(C(=O)N2C[C@@H](C)N(CCCOC)C[C@@H]2C)C3(C)C)o1` [Example F6], the Ki worked out at 83.6 nM.

`COCCCN1C[C@H](C)N(C(=O)N2Cc3c(NC(=O)Cc4c(C)noc4C)n[nH]c3C2(C)C)C[C@H]1C` [Example F7]: the Ki was 67.1 nM. Then `C[C@H]1CN2CCC[C@H]2CN1C(=O)N1Cc2c(NC(=O)c3ccnn3C)n[nH]c2C1(C)C` [Example E8], with 118 nM; and `COc1ccc(C(=O)Nc2n[nH]c3c2CN(C(=O)N2C[C@@H]4CCCN4C[C@@H]2C)C3(C)C)nc1` [Example A47], with 65.5 nM.

For the molecule `Cc1cc(C(=O)Nc2n[nH]c3c2CN(C(=O)N2C[C@@H]4CCCN4C[C@@H]2C)C3(C)C)nc(C)n1` [Example A75], the Ki worked out at 56.9 nM. As for `CC[C@H]1CN2CCC[C@H]2CN1C(=O)N1Cc2c(NC(=O)c3ccccc3F)n[nH]c2C1(C)C` [Example A72], the figure is 105 nM. For `C[C@H]1CN2CCC[C@H]2CC1C(=O)N1Cc2c(NC(=O)c3csc(Br)n3)n[nH]c2C1(C)C` (some centres unmarked) [Example A103], the Ki came out at 12.9 nM. Regarding `C[C@@H]1CN(C(=O)N2Cc3c(NC(=O)c4cn(C)cn4)n[nH]c3C2(C)C)[C@@H](C)CN1CC1CCOCC1` [Example E14], the Ki was 156 nM. In the case of `C[C@H]1CN2CCC[C@H]2CN1C(=O)N1Cc2c(NC(=O)c3ccc4c(c3)CCO4)n[nH]c2C1(C)C` [Example A64], the Ki was 15.9 nM.

For the molecule `CCN1CCN(C(=O)N2Cc3c(NC(=O)c4ccccn4)n[nH]c3C2(C)C)CC1C` (centres unmarked) [Example A128], the Ki was found to be 156 nM. For `C[C@@H]1CN(C(=O)N2Cc3c(NC(=O)c4ccc(F)cn4)n[nH]c3C2(C)C)[C@@H](C)CN1CCO` [Example A161], the Ki was 38.8 nM.

For `C[C@H]1CN2CCC[C@H]2CN1C(=O)N1Cc2c(NC(=O)c3ccc(Cl)c(Cl)c3)n[nH]c2C1(C)C` [Example A36], the Ki stood at 13.9 nM.
